Reference: patent US8741853B2, “Mitochondria-targeting antioxidant therapeutics” (priority 2007, dated 2014)
Where two headings read alike, the source gives them in different places.

What was measured:
[1] = test system: mitochondrial membrane potential (ΔΨm) in SHSY-5Y neuroblastoma cells; conditions: FRET-based ΔΨm assay, reference agent, cited from earlier work
[2] = test system: caspase-3 activation in SHSY-5Y cells; test: Caspase-3 activation induced by ethacrynic acid plus thapsigargin; assay type: cell-based; conditions: positive control, 24 hr ethacrynic acid/thapsigargin stress
Description: The potential ability of test compound Nos. 1-10 individually to moderate caspase activation was therefore examined using SHSY-5Y cells, in accordance with the Dykens assay.
In the Dykens assay method, caspase activation is induced by 24 hr exposure to a combined stress of ethacrynic acid (25 to derivatize glutathione and induce oxidative stress, and thapsigargin (1 μM), to induce a chronic increase in cytosolic Ca^2+. Caspase activity is determined using a fluorogenic substrate, with rates normalized to cell number; and is expressed as % response of controls on every plate exposed to ethacrynate and thapsigargen in the absence of compound. Compound Nos. 1-10 at 10 μM were separately introduced for reaction at the same time as the ethycrynic acid/thapsigargin addition, and were present throughout the 24 hr incubation period.

[3] = test system: mitochondrial membrane potential (ΔΨm) in SHSY-5Y neuroblastoma cells; test: FRET-based ΔΨm assay (NAO/TMRE), compound alone and Ca2+-induced ΔΨm collapse; assay type: cell-based; conditions: concentration not given; for % Ca^2+ response score (comparison agents): reference agents; for B-C response, typical values: reference agents alone
[4] = test system: human tumor cell lines FaDu and Jurkat, Ki-v-Ras-transformed Balb/c-3T3 murine mesenchymal cell line; conditions: cited from earlier work
[5] = humans; cited from earlier work
[6] = read-out: EC50, prevent Ca^2+ uptake via uniporter inhibition

**Q.** With `CC[C@H]1/C=C/C=C/C[C@@H](C)[C@H](O)[C@@](C)(O)C(=O)[C@@H](C)[C@H](O)[C@@H](C)C(=O)[C@@H](C)[C@H](O)[C@@H](C)/C=C/C(=O)O[C@@H]2[C@H](C)[C@H](CC1)O[C@]1(CC[C@H](C)[C@H](C[C@@H](C)O)O1)[C@H]2C` [oligomycin] as the molecule, how does the EC50 ([1]; read-out: EC50, hyperpolarize ΔΨm) read?
**A.** 0.026 µM

**Q.** For RU-360, which EC50 [1, 6] is on record?
**A.** 0.012 µM

**Q.** With “IGF-1: positive control in caspase-3 activation assay” as the molecule, how does the “Reduction of caspase activity” value [2] read?
**A.** 64%

**Q.** With `N.N.N.N.N.N.N.N.N.N.N.N.N.N.[Cl-].[Cl-].[Cl-].[Cl-].[Cl-].[Cl-].[O-2].[O-2].[Ru+3].[Ru+3].[Ru+4]` [ruthenium red] as the molecule, how does the “% Ca^2+ response score (comparison agents)” value [3] read?
**A.** 9%

**Q.** And the EC50 [1, 6]?
**A.** 0.27 µM

**Q.** Which “B-C response, typical values” [3] does the source give for `N#CC(C#N)=NNc1cccc(Cl)c1` [CCCP] here?
**A.** ~−1800 RFU

**Q.** And the EC50 ([1]; read-out: EC50, collapse ΔΨm)?
**A.** 2 µM

**Q.** Which EC50 ([1]; read-out: EC50, dissipate ΔΨm under physiological circumstances) does the source give for `Nc1ncnc2c1ncn2[C@@H]1O[C@H](COP(=O)(O)OP(=O)(O)O)[C@@H](O)[C@H]1O` [ADP] here?
**A.** 122 µM

**Q.** With `CO[C@H](C/C=C\C=C\CC/C=C/C[C@H](C)/C=C/C(=C\C(=O)O)CC(=O)O)/C(C)=C\C=C(/C)C(=O)O` [bongkrekate] as the molecule, how does the “B-C response, typical values” [3] read?
**A.** ~600 RFU

**Q.** What about the “% Ca^2+ response score (comparison agents)” value [3] of the same molecule?
**A.** 44%

**Q.** And the EC50 ([1]; read-out: EC50, inhibit Ca^2+-mediated ΔΨm loss)?
**A.** 0.077 µM

**Q.** What does the source list for `O=C(O)CCCCC1CCSS1` (stereo not drawn) [alpha-lipoic acid, 1,2-dithiolane-3-pentanoic acid]?
**A.** Apoptosis in tumor cell lines [4]: induces apoptosis; plasma half-life [5]: less than 1 hour; time to excretion, mainly in the urine [5]: ≤ 24 h
